Our source for the inhibition values is patent US10435399B2, “HDAC6 inhibitory heterocyclic compound” (TAKEDA PHARMACEUTICAL COMPANY LIMITED, priority 2017, dated 2019).

SMILES strings stand for the structures.

This assay deals with T1, HDAC6 enzyme (Homo sapiens, UniProt Q9UBN7).
T1 construct: transducing full length HDAC6 gene into Sf-9 insect cells; GST; purchased SignalChem; host or cells: Sf-9 insect cells
T1 sequence (Q9UBN7 1-1215): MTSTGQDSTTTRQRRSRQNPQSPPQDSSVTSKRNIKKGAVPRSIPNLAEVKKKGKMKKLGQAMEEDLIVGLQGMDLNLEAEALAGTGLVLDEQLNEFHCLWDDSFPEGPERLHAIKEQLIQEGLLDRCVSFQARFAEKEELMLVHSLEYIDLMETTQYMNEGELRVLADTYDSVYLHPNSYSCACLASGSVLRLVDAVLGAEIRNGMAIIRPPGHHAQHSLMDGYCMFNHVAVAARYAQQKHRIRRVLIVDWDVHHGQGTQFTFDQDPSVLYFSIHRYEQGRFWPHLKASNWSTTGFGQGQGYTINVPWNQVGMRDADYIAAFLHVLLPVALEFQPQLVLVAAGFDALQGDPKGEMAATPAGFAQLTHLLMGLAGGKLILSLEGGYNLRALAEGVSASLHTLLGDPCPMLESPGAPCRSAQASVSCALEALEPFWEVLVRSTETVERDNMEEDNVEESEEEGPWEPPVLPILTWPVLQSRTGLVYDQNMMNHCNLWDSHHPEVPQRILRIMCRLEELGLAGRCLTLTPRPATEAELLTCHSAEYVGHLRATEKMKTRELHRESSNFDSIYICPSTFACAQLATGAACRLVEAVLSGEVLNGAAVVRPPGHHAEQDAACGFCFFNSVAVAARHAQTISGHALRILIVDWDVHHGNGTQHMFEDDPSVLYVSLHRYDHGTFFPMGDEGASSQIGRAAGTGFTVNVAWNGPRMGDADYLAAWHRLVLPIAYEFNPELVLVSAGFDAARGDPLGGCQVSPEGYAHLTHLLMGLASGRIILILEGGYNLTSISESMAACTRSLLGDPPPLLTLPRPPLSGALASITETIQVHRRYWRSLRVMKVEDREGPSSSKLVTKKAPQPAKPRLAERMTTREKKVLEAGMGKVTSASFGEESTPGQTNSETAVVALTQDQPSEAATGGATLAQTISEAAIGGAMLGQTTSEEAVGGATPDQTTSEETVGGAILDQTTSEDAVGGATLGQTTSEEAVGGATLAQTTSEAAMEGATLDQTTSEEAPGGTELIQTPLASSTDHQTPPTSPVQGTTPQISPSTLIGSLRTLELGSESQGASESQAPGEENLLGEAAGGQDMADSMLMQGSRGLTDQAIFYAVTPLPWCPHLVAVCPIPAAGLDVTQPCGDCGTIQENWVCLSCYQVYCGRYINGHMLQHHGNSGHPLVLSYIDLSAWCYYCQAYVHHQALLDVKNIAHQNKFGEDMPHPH
The assay can be described thus: HDAC6 enzyme inhibitory activity (HDAC-Glo I/II Assay kit). Format: biochemical. The conditions noted are these: 10 μM; wells without enzyme = 100% inhibition; read-out: HDAC6 inhibitory rate (%) (10 μM). In a few lines: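 Luminescent HDAC-Glo I/II readout after 20 min room-temperature reaction with substrate-developer, following 60 min compound–enzyme preincubation. Enzyme: full-length HDAC6 from Sf-9 cells, GST-purified; buffer 24 mM Tris-HCl pH 7.5, 0.01% Tween-20, glutathione, salts. Wells lacking enzyme define 100% inhibition.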

As for `Cc1ccccc1-c1ccccc1N1Cc2ccc(-c3nnc(C(F)F)o3)cc2C1=O` [Example 311, 6-(5-(difluoromethyl)-1,3,4-oxadiazol-2-yl)-2-(2′-methyl-biphenyl-2-yl)isoindolin-1-one], the inhibition at 10 µM stood at 99%.

For `Cc1cccc(-c2ccccc2N2Cc3ccc(-c4nnc(C(F)F)o4)cc3C2=O)c1` [Example 312, 6-(5-(difluoromethyl)-1,3,4-oxadiazol-2-yl)-2-(3′-methyl-biphenyl-2-yl)isoindolin-1-one], the inhibition at 10 µM came out at 96%.

Regarding `Cc1ccc(-c2ccccc2N2Cc3ccc(-c4nnc(C(F)F)o4)cc3C2=O)cc1` [Example 313, 6-(5-(difluoromethyl)-1,3,4-oxadiazol-2-yl)-2-(4′-methyl-biphenyl-2-yl)isoindolin-1-one], the inhibition at 10 µM came to 98%.

For the compound `CS(=O)(=O)c1cncc(-c2ccccc2N2Cc3ccc(-c4nnc(C(F)F)o4)cc3C2=O)c1` [Example 314, 6-(5-(difluoromethyl)-1,3,4-oxadiazol-2-yl)-2-(2-(5-(methylsulfonyl)pyridin-3-yl)phenyl)isoindolin-1-one], the inhibition at 10 µM stood at 101%. The result for `O=C1c2cc(-c3nnc(C(F)F)o3)ccc2CN1c1ccccc1-c1cccc(OCC(F)(F)F)c1` [Example 315, 6-(5-(difluoromethyl)-1,3,4-oxadiazol-2-yl)-2-(3′-(2,2,2-trifluoroethoxy)biphenyl-2-yl)isoindolin-1-one] reads 98%; that for `N#CC1(c2ccc(-c3ccccc3N3Cc4ccc(-c5nnc(C(F)F)o5)cc4C3=O)cc2)CC1` [Example 316, 1-(2′-(6-(5-(difluoromethyl)-1,3,4-oxadiazol-2-yl)-1-oxo-1,3-dihydro-2H-isoindol-2-yl)-biphenyl-4-yl)cyclopropane-carbonitrile], 92%. For `COCCOc1ccccc1-c1ccccc1N1Cc2ccc(-c3nnc(C(F)F)o3)cc2C1=O` [Example 317, 6-(5-(difluoromethyl)-1,3,4-oxadiazol-2-yl)-2-(2′-(2-methoxyethoxy)biphenyl-2-yl)isoindolin-1-one], the inhibition at 10 µM is 97%. Then `O=C1c2cc(-c3nnc(C(F)F)o3)ccc2CN1c1ccccc1-c1cnn(C(F)F)c1` [Example 318, 6-(5-(difluoromethyl)-1,3,4-oxadiazol-2-yl)-2-(2-(1-(difluoromethyl)-1H-pyrazol-4-yl)phenyl)isoindolin-1-one], with 98%. As for `O=C1c2cc(-c3nnc(C(F)F)o3)ccc2CN1c1ccccc1-c1cnn(C2CCOCC2)c1` [Example 319, 6-(5-(difluoromethyl)-1,3,4-oxadiazol-2-yl)-2-(2-(1-(tetrahydro-2H-pyran-4-yl)-1H-pyrazol-4-yl)phenyl)-isoindolin-1-one], the inhibition at 10 µM is 86%. The result for `Cn1nc(C(F)(F)F)cc1-c1ccccc1N1Cc2ccc(-c3nnc(C(F)F)o3)cc2C1=O` [Example 320, 6-(5-(difluoromethyl)-1,3,4-oxadiazol-2-yl)-2-(2-(1-methyl-3-(trifluoromethyl)-1H-pyrazol-5-yl)phenyl)-isoindolin-1-one] reads 99%; that for `COCCOc1ccc(-c2ccccc2N2Cc3ccc(-c4nnc(C(F)F)o4)cc3C2=O)cc1` [Example 321, 6-(5-(difluoromethyl)-1,3,4-oxadiazol-2-yl)-2-(4′-(2-methoxyethoxy)biphenyl-2-yl)isoindolin-1-one], 98%; that for `O=C1c2cc(-c3nnc(C(F)F)o3)ccc2CN1c1ccccc1-c1cnc(OCC(F)(F)F)nc1` [Example 322, 6-(5-(difluoromethyl)-1,3,4-oxadiazol-2-yl)-2-(2-(2-(2,2,2-trifluoroethoxy)-pyrimidin-5-yl)phenyl)-isoindolin-1-one], 23%.

For the compound `O=C1c2cc(-c3nnc(C(F)F)o3)ccc2CN1c1ccccc1-c1cnn(Cc2ccccn2)c1` [Example 323, 6-(5-(difluoromethyl)-1,3,4-oxadiazol-2-yl)-2-(2-(1-(pyridin-2-ylmethyl)-1H-pyrazol-4-yl)phenyl)-isoindolin-1-one], the inhibition at 10 µM was determined as 97%. Then `N#CCOc1cccc(-c2ccccc2N2Cc3ccc(-c4nnc(C(F)F)o4)cc3C2=O)c1` [Example 324, ((2′-(6-(5-(difluoromethyl)-1,3,4-oxadiazol-2-yl)-1-oxo-1,3-dihydro-2H-isoindol-2-yl)biphenyl-3-yl)oxy)-acetonitrile], with 97%; and `O=C(c1cccc(-c2ccccc2N2Cc3ccc(-c4nnc(C(F)F)o4)cc3C2=O)c1)N1CCCC1` [Example 325, 6-(5-(difluoromethyl)-1,3,4-oxadiazol-2-yl)-2-(3′-(pyrrolidin-1-ylcarbonyl)-biphenyl-2-yl)isoindolin-1-one], with 100%; and `O=C1c2cc(-c3nnc(C(F)F)o3)cc(F)c2CN1C[C@@H]1CCCN1` [Example 326, 6-(5-(difluoromethyl)-1,3,4-oxadiazol-2-yl)-4-fluoro-2-((2S)-pyrrolidin-2-ylmethyl)-isoindolin-1-one], with 86%.

As to `O=C1c2cc(-c3nnc(C(F)F)o3)cnc2CN1Cc1cccc(F)c1F` [Example 327, 6-(2,3-difluorobenzyl)-3-(5-(difluoromethyl)-1,3,4-oxadiazol-2-yl)-6,7-dihydro-5H-pyrrolo[3,4-b]pyridin-5-one], the inhibition at 10 µM was 99%.

Turning to `O=C1c2cc(-c3nnc(C(F)F)o3)cnc2CN1Cc1ccc(F)cc1` [Example 328, 3-(5-(difluoromethyl)-1,3,4-oxadiazol-2-yl)-6-(4-fluorobenzyl)-6,7-dihydro-5H-pyrrolo[3,4-b]pyridin-5-one], the inhibition at 10 µM came to 98%. Regarding `O=C1c2cc(-c3nnc(C(F)F)o3)cnc2CN1Cc1c(F)cccc1F` [Example 329, 6-(2,6-difluorobenzyl)-3-(5-(difluoromethyl)-1,3,4-oxadiazol-2-yl)-6,7-dihydro-5H-pyrrolo[3,4-b]pyridin-5-one], the inhibition at 10 µM turned out to be 99%. Then `O=C1c2cc(-c3nnc(C(F)F)o3)ccc2CN1c1ccccc1-n1cccn1` [Example 330, 6-(5-(difluoromethyl)-1,3,4-oxadiazol-2-yl)-2-(2-(1H-pyrazol-1-yl)phenyl)-isoindolin-1-one], with 99%; and `CC(C)(C)OC(=O)N1CC(F)(F)C[C@H]1CN1Cc2c(F)cc(-c3nnc(C(F)F)o3)cc2C1=O` [Example 331, tert-butyl (2S)-2-((6-(5-(difluoromethyl)-1,3,4-oxadiazol-2-yl)-4-fluoro-1-oxo-1,3-dihydro-2H-isoindol-2-yl)methyl)-4,4-difluoropyrrolidine-1-carboxylate], with 97%; and `COc1ccc(CN2Cc3ncc(-c4nnc(C(F)F)o4)cc3C2=O)cc1` [Example 332, 3-(5-(difluoromethyl)-1,3,4-oxadiazol-2-yl)-6-(4-methoxybenzyl)-6,7-dihydro-5H-pyrrolo[3,4-b]pyridin-5-one], with 99%. In the case of `O=C1c2cc(-c3nnc(C(F)F)o3)cnc2CN1Cc1ccc(Cl)cc1` [Example 333, 6-(4-chlorobenzyl)-3-(5-(difluoromethyl)-1,3,4-oxadiazol-2-yl)-6,7-dihydro-5H-pyrrolo[3,4-b]pyridin-5-one], the inhibition at 10 µM is 97%. Regarding `O=C1c2cc(-c3nnc(C(F)F)o3)cnc2CN1Cc1ccc(C(F)(F)F)cc1` [Example 334, 3-(5-(difluoromethyl)-1,3,4-oxadiazol-2-yl)-6-(4-(trifluoromethyl)benzyl)-6,7-dihydro-5H-pyrrolo[3,4-b]pyridin-5-one], the inhibition at 10 µM came to 93%. Consider `O=C1c2cc(-c3nnc(C(F)F)o3)cnc2CN1Cc1ccc(OC(F)F)cc1` [Example 335], for which the inhibition at 10 µM came out at 101%. In the case of `O=C1c2cc(-c3nnc(C(F)F)o3)cc(F)c2CN1C[C@@H]1CCCN1S(=O)(=O)C1CC1` [Example 336, 2-(((2S)-1-(cyclopropyl-sulfonyl)pyrrolidin-2-yl)methyl)-6-(5-(difluoromethyl)-1,3,4-oxadiazol-2-yl)-4-fluoroisoindolin-1-one], the inhibition at 10 µM turned out to be 102%.
